Assay: xn = mol fraction of the nth substance listed
Conditions: 101 kPa, Liquid; for viscosity: Concentric cylinders viscometry; for mass density: Vibrating tube method

C=C(C)[C@H]1CC=C(C)CC1 [(R)-1-methyl-4-(1-methylethenyl)cyclohexene] + CCCCCO
Conditions	mass density, 293.15 K [kg/m3]	mass density, 303.15 K [kg/m3]	mass density, 313.15 K [kg/m3]	mass density, 323.15 K [kg/m3]	viscosity, 293.15 K [mPa·s]	viscosity, 303.15 K [mPa·s]	viscosity, 313.15 K [mPa·s]	viscosity, 323.15 K [mPa·s]	viscosity, 333.15 K [mPa·s]
x2 = 0	841.5	833.6	825.8	817.9	0.902	0.793	0.702	0.628	0.566
x2 = 0.092	839.4	831.4	823.4	815.4	0.935	0.814	0.716	0.635	0.568
x2 = 0.1644	837.8	829.8	821.8	813.7	0.983	0.85	0.743	0.655	0.582
x2 = 0.2748	835.4	827.4	819.4	811.3	1.079	0.923	0.799	0.699	0.616
x2 = 0.3592	833.5	825.4	817.4	809.3	1.182	1	0.854	0.737	0.644
x2 = 0.4565	831.2	823.2	815.2	807.1	1.34	1.115	0.942	0.805	0.696
x2 = 0.5542	828.8	820.8	812.9	804.8	1.564	1.275	1.057	0.891	0.761
x2 = 0.6068	827.4	819.5	811.6	803.5	1.717	1.384	1.137	0.949	0.803
x2 = 0.647	826.4	818.4	810.6	802.5	1.851	1.477	1.201	0.995	0.837
x2 = 0.7365	823.8	816	808.2	800.2	2.213	1.73	1.386	1.129	0.937
x2 = 0.8234	821.1	813.4	805.8	797.9	2.66	2.055	1.617	1.298	1.06
x2 = 0.9105	818.1	810.5	803	795.3	3.26	2.473	1.915	1.51	1.219

Reference: the NIST ThermoML archive (doi:10.1016/j.fluid.2010.03.001)
